Data taken from US20070128217A1 (priority 2003, published 2007).

Tests used:
[1] = system: control sera (pooled serum of ten healthy LUMC hospital workers; commercial negative donor pooled serum from the Dutch bloodbank); format: binding, human; design: Binding of Control serum LUMC to linear peptides / Binding of Control serum Blood-bank to linear peptides / Binding of Control serum LUMC to looped peptides / Binding of Control Serum Blood-Bank to Looped peptides / Binding of Control serum LUMC to linear peptides of the protein M of SARS-CoV Urbani / Binding of Control serum Blood-bank to linear peptides of the protein M of SARS-CoV Urbani / Binding of Control serum LUMC to looped peptides of the protein M of SARS-CoV Urbani / Binding of Control Serum Blood-Bank to Looped peptides of the protein M of SARS-CoV Urbani: unit not given here
[2] = system: rabbit serum obtained by immunizing a rabbit with the SARS-CoV strain Frankfurt 1; format: binding; design: Binding of a rabbit serum to linear peptides / Binding of a rabbit serum to looped peptides / Rabbit serum linear peptides / Rabbit serum looped peptides / Binding of a rabbit serum to linear peptides of protein N of SARS-CoV Urbani (Rabbit serum linear peptides) / Binding of a rabbit serum to looped/cyclic peptides of protein N of SARS-CoV Urbani (Rabbit serum looped peptides): unit not given here
[3] = system: recombinant human anti-SARS-CoV antibody 03-018; format: binding; design: Binding of antibody 03-018 to linear peptides of the N protein of SARS-CoV Urbani / Binding of antibody 03-018 to looped/cyclic peptides of the N protein of SARS-CoV Urbani: unit not given here
[4] = system: antibodies in sera from SARS patients (sera 1a, 1b, 2, 6, 37, 62, London, SARS-yellow, SARS-green); format: binding, human; design: Binding of serum 6 to linear peptides of protein X1 of SARS-CoV Urbani / Binding of serum 37 to linear peptides of protein X1 of SARS-CoV Urbani / Binding of serum 6 to looped/cyclic peptide (PEPSCAN-ELISA) / Binding of serum 37 to looped/cyclic peptide (PEPSCAN-ELISA) / Binding of serum 37 to looped/cyclic peptides of protein X1 of SARS-CoV Urbani / Binding of serum 6 to linear peptides of protein X2 / Binding of serum 37 to linear peptides of protein X2 / Binding of serum 37 to looped/cyclic peptides of protein X2 of SARS-CoV Urbani / Binding of serum 6 to linear peptides of protein M of SARS-CoV Urbani / Binding of serum 37 to linear peptides of protein M of SARS-CoV Urbani / Binding of serum 6 to looped/cyclic peptides of protein M of SARS-CoV Urbani / Binding of serum 37 to looped/cyclic peptides of protein M of SARS-CoV Urbani / Binding of serum 6 to linear peptides of protein X3 of SARS-CoV Urbani / Binding of serum 37 to linear peptides of protein X3 of SARS-CoV Urbani / Binding of serum 37 to looped/cyclic peptides of protein X3 of SARS-CoV Urbani / Binding of serum 6 to linear peptides of protein X4 of SARS-CoV Urbani / Binding of serum 37 to linear peptides of protein X4 of SARS-CoV Urbani / Binding of serum 37 to looped/cyclic peptides of protein X4 of SARS-CoV Urbani / Binding of serum 6 to linear peptides of protein X5 of SARS-CoV Urbani / Binding of serum 37 to linear peptides of protein X5 of SARS-CoV Urbani / Binding of serum 37 to looped/cyclic peptides of protein X5 of SARS-CoV Urbani / Binding of serum 6 to linear peptides of protein N of SARS-CoV Urbani / Binding of serum 37 to linear peptides of protein N of SARS-CoV Urbani / Binding of serum 6 to linear peptide (PEPSCAN-ELISA) / Binding of serum 1a to looped/cyclic peptides of protein N of SARS-CoV Urbani / Binding of serum 1b to looped/cyclic peptides of protein N of SARS-CoV Urbani / Binding of serum 2 to looped/cyclic peptides of protein N of SARS-CoV Urbani / Binding of serum 6 to looped/cyclic peptides of protein N of SARS-CoV Urbani / Binding of serum 37 to looped/cyclic peptides of protein N of SARS-CoV Urbani / Binding of serum 62 to looped/cyclic peptides of protein N of SARS-CoV Urbani / Binding of serum London to looped/cyclic peptides of protein N of SARS-CoV Urbani / Binding of serum SARS-green to looped/cyclic peptides of protein N of SARS-CoV Urbani: unit not given here

Sequence: TDSTDNNQNGGRNGA
- Binding of Control Serum Blood-Bank to Looped peptides [1]: 0.7
- Binding of Control serum Blood-bank to linear peptides [1]: 1.1
- Binding of Control serum LUMC to linear peptides [1]: 0.8
- Binding of Control serum LUMC to looped peptides [1]: 0.8
- Binding of a rabbit serum to linear peptides of protein N of SARS-CoV Urbani (Rabbit serum linear peptides) [2]: 0.1
- Binding of a rabbit serum to looped/cyclic peptides of protein N of SARS-CoV Urbani (Rabbit serum looped peptides) [2]: 0.2
- Binding of antibody 03-018 to linear peptides of the N protein of SARS-CoV Urbani [3]: 0.2
- Binding of antibody 03-018 to looped/cyclic peptides of the N protein of SARS-CoV Urbani [3]: 0.2
- Binding of serum 1a to linear peptides of protein N of SARS-CoV Urbani [4]: 0.3
- Binding of serum 1a to looped/cyclic peptides of protein N of SARS-CoV Urbani [4]: 0.4
- Binding of serum 1b to linear peptides of protein N of SARS-CoV Urbani [4]: 0.2
- Binding of serum 1b to looped/cyclic peptides of protein N of SARS-CoV Urbani [4]: 0.3
- Binding of serum 2 to linear peptides of protein N of SARS-CoV Urbani [4]: 0.2
- Binding of serum 2 to looped/cyclic peptides of protein N of SARS-CoV Urbani [4]: 0.6
- Binding of serum 6 to linear peptides of protein N of SARS-CoV Urbani [4]: 0.3
- Binding of serum 6 to looped/cyclic peptides of protein N of SARS-CoV Urbani [4]: 0.3
- Binding of serum 37 to linear peptides of protein N of SARS-CoV Urbani [4]: 1.0
- Binding of serum 37 to looped/cyclic peptides of protein N of SARS-CoV Urbani [4]: 0.7
- Binding of serum 62 to linear peptides of protein N of SARS-CoV Urbani [4]: 0.8
- Binding of serum 62 to looped/cyclic peptides of protein N of SARS-CoV Urbani [4]: 0.3
- Binding of serum London to linear peptides of protein N of SARS-CoV Urbani [4]: 0.6
- Binding of serum London to looped/cyclic peptides of protein N of SARS-CoV Urbani [4]: 0.6
- Binding of serum SARS-green to linear peptides of protein N of SARS-CoV Urbani [4]: 1.0
- Binding of serum SARS-green to looped/cyclic peptides of protein N of SARS-CoV Urbani [4]: 0.8
- Binding of serum SARS-yellow to linear peptides of protein N of SARS-CoV Urbani [4]: 0.7
- Binding of serum SARS-yellow to looped/cyclic peptides of protein N of SARS-CoV Urbani [4]: 0.7

Sequence: TEGALNTPKDHIGTR
- Binding of Control Serum Blood-Bank to Looped peptides [1]: 0.7
- Binding of Control serum Blood-bank to linear peptides [1]: 1.0
- Binding of Control serum LUMC to linear peptides [1]: 0.9
- Binding of Control serum LUMC to looped peptides [1]: 0.7
- Binding of a rabbit serum to linear peptides of protein N of SARS-CoV Urbani (Rabbit serum linear peptides) [2]: 0.2
- Binding of a rabbit serum to looped/cyclic peptides of protein N of SARS-CoV Urbani (Rabbit serum looped peptides) [2]: 0.0
- Binding of antibody 03-018 to linear peptides of the N protein of SARS-CoV Urbani [3]: 0.2
- Binding of antibody 03-018 to looped/cyclic peptides of the N protein of SARS-CoV Urbani [3]: 0.3
- Binding of serum 1a to linear peptides of protein N of SARS-CoV Urbani [4]: 0.2
- Binding of serum 1a to looped/cyclic peptides of protein N of SARS-CoV Urbani [4]: 0.3
- Binding of serum 1b to linear peptides of protein N of SARS-CoV Urbani [4]: 0.1
- Binding of serum 1b to looped/cyclic peptides of protein N of SARS-CoV Urbani [4]: 0.2
- Binding of serum 2 to linear peptides of protein N of SARS-CoV Urbani [4]: 0.2
- Binding of serum 2 to looped/cyclic peptides of protein N of SARS-CoV Urbani [4]: 0.5
- Binding of serum 6 to linear peptides of protein N of SARS-CoV Urbani [4]: 0.2
- Binding of serum 6 to looped/cyclic peptides of protein N of SARS-CoV Urbani [4]: 0.4
- Binding of serum 37 to linear peptides of protein N of SARS-CoV Urbani [4]: 0.7
- Binding of serum 37 to looped/cyclic peptides of protein N of SARS-CoV Urbani [4]: 0.5
- Binding of serum 62 to linear peptides of protein N of SARS-CoV Urbani [4]: 0.7
- Binding of serum 62 to looped/cyclic peptides of protein N of SARS-CoV Urbani [4]: 0.6
- Binding of serum London to linear peptides of protein N of SARS-CoV Urbani [4]: 0.5
- Binding of serum London to looped/cyclic peptides of protein N of SARS-CoV Urbani [4]: 0.4
- Binding of serum SARS-green to linear peptides of protein N of SARS-CoV Urbani [4]: 0.6
- Binding of serum SARS-green to looped/cyclic peptides of protein N of SARS-CoV Urbani [4]: 0.6
- Binding of serum SARS-yellow to linear peptides of protein N of SARS-CoV Urbani [4]: 0.6
- Binding of serum SARS-yellow to looped/cyclic peptides of protein N of SARS-CoV Urbani [4]: 0.4

Sequence: TEPKKDKKKKTDEAQ
- Control Serum Blood-Bank Looped peptides [1]: 0.5
- Control serum Blood-bank linear peptides [1]: 0.7
- Control serum LUMC linear peptides [1]: 0.8
- Control serum LUMC looped peptides [1]: 0.4
- Binding of a rabbit serum to linear peptides of protein N of SARS-CoV Urbani (Rabbit serum linear peptides) [2]: 0.2
- Binding of a rabbit serum to looped/cyclic peptides of protein N of SARS-CoV Urbani (Rabbit serum looped peptides) [2]: 0.3
- Binding of antibody 03-018 to linear peptides of the N protein of SARS-CoV Urbani [3]: 0.1
- Binding of antibody 03-018 to looped/cyclic peptides of the N protein of SARS-CoV Urbani [3]: 0.2
- Binding of serum 1a to linear peptides of protein N of SARS-CoV Urbani [4]: 0.2
- Binding of serum 1a to looped/cyclic peptides of protein N of SARS-CoV Urbani [4]: 0.2
- Binding of serum 1b to linear peptides of protein N of SARS-CoV Urbani [4]: 0.1
- Binding of serum 1b to looped/cyclic peptides of protein N of SARS-CoV Urbani [4]: 0.1
- Binding of serum 2 to linear peptides of protein N of SARS-CoV Urbani [4]: 2.5
- Binding of serum 2 to looped/cyclic peptides of protein N of SARS-CoV Urbani [4]: 1.9
- Binding of serum 6 to linear peptides of protein N of SARS-CoV Urbani [4]: 0.2
- Binding of serum 6 to looped/cyclic peptides of protein N of SARS-CoV Urbani [4]: 0.1
- Binding of serum 37 to linear peptides of protein N of SARS-CoV Urbani [4]: 0.7
- Binding of serum 37 to looped/cyclic peptides of protein N of SARS-CoV Urbani [4]: 0.4
- Binding of serum 62 to linear peptides of protein N of SARS-CoV Urbani [4]: 0.7
- Binding of serum 62 to looped/cyclic peptides of protein N of SARS-CoV Urbani [4]: 0.3
- Binding of serum London to linear peptides of protein N of SARS-CoV Urbani [4]: 0.6
- Binding of serum London to looped/cyclic peptides of protein N of SARS-CoV Urbani [4]: 0.3
- Binding of serum SARS-green to linear peptides of protein N of SARS-CoV Urbani [4]: 0.5
- Binding of serum SARS-green to looped/cyclic peptides of protein N of SARS-CoV Urbani [4]: 0.0
- Binding of serum SARS-yellow to linear peptides of protein N of SARS-CoV Urbani [4]: 0.6
- Binding of serum SARS-yellow to looped/cyclic peptides of protein N of SARS-CoV Urbani [4]: 0.2

Sequence: TGPEASLPYGANKEG
- Binding of Control Serum Blood-Bank to Looped peptides [1]: 0.8
- Binding of Control serum Blood-bank to linear peptides [1]: 0.9
- Binding of Control serum LUMC to linear peptides [1]: 1.1
- Binding of Control serum LUMC to looped peptides [1]: 0.6
- Binding of a rabbit serum to linear peptides of protein N of SARS-CoV Urbani (Rabbit serum linear peptides) [2]: 0.1
- Binding of a rabbit serum to looped/cyclic peptides of protein N of SARS-CoV Urbani (Rabbit serum looped peptides) [2]: 0.5
- Binding of antibody 03-018 to linear peptides of the N protein of SARS-CoV Urbani [3]: 0.1
- Binding of antibody 03-018 to looped/cyclic peptides of the N protein of SARS-CoV Urbani [3]: 0.2
- Binding of serum 1a to linear peptides of protein N of SARS-CoV Urbani [4]: 0.3
- Binding of serum 1a to looped/cyclic peptides of protein N of SARS-CoV Urbani [4]: 0.3
- Binding of serum 1b to linear peptides of protein N of SARS-CoV Urbani [4]: 0.2
- Binding of serum 1b to looped/cyclic peptides of protein N of SARS-CoV Urbani [4]: 0.2
- Binding of serum 2 to linear peptides of protein N of SARS-CoV Urbani [4]: 0.3
- Binding of serum 2 to looped/cyclic peptides of protein N of SARS-CoV Urbani [4]: 0.5
- Binding of serum 6 to linear peptides of protein N of SARS-CoV Urbani [4]: 0.3
- Binding of serum 6 to looped/cyclic peptides of protein N of SARS-CoV Urbani [4]: 0.4
- Binding of serum 37 to linear peptides of protein N of SARS-CoV Urbani [4]: 0.7
- Binding of serum 37 to looped/cyclic peptides of protein N of SARS-CoV Urbani [4]: 0.6
- Binding of serum 62 to linear peptides of protein N of SARS-CoV Urbani [4]: 0.9
- Binding of serum 62 to looped/cyclic peptides of protein N of SARS-CoV Urbani [4]: 0.5
- Binding of serum London to linear peptides of protein N of SARS-CoV Urbani [4]: 0.7
- Binding of serum London to looped/cyclic peptides of protein N of SARS-CoV Urbani [4]: 0.6
- Binding of serum SARS-green to linear peptides of protein N of SARS-CoV Urbani [4]: 0.8
- Binding of serum SARS-green to looped/cyclic peptides of protein N of SARS-CoV Urbani [4]: 0.7
- Binding of serum SARS-yellow to linear peptides of protein N of SARS-CoV Urbani [4]: 0.6
- Binding of serum SARS-yellow to looped/cyclic peptides of protein N of SARS-CoV Urbani [4]: 0.4
